The record followed here is patent US7279493B2, “Therapeutic agents useful for treating pain” (Euro-Celtique S.A., priority 2002, dated 2007).

The target of assay [1] is T1, human VR1 (Homo sapiens, UniProt Q8NER1).
T1 construct: expressed in transfected cells
The assay can be described thus: VR1 pH-based assay in HEK293-EcR cells (FLIPR, Fluo-4). Type of assay: cell-based. The conditions noted are these: activation by agonist buffer giving pH 5.5, human VR1 in PonA-induced HEK293-EcR cells, 50 pM to 3 μM, n+3. How it is done: Human VR1 cloning. Human spinal cord RNA (commercially available from Clontech, Palo Alto, Calif.) was used. Reverse transcription was conducted on 1.0 μg total RNA using Thermoscript Reverse Transcriptase (commercially available from Invitrogen, Carlsbad, Calif.) and oligo dT primers as detailed in its product description. Reverse transcription reactions were incubated at 55° C. for 1 h, heat-inactivated at 85° C. for 5 min, and RNase H-treated at 37° C. for 20 min. Human VR1 cDNA sequence was obtained by comparison of the human genomic sequence, prior to annotation, to the published rat sequence. Intron sequences were removed and flanking exonic sequences were joined to generate the hypothetical human cDNA. Primers flanking the coding region of human VR1 were designed as follows: forward primer, [NT]; and reverse primer, [NT] of VR1 was performed on one tenth of the Reverse transcription reaction mixture using Expand Long Template Polymerase and Expand Buffer 2 in a final volume of 50 μL according to the manufacturer's instructions (Roche Applied Sciences, Indianapolis, Ind.). After denaturation at 94° C. for 2 min PCR amplification was performed for 25 cycles at 94° C. for 15 sec, 58° C. for 30 sec, and 68° C. for 3 min followed by a final incubation at 72° C. for 7 min to complete the amplification. […]

In assay [2] the target is T1, human VR1. The assay can be described thus: VR1 capsaicin-based assay in HEK293-EcR cells (FLIPR, Fluo-4). Type of assay: cell-based. How it is done:
Human VR1 cloning. Human spinal cord RNA (commercially available from Clontech, Palo Alto, Calif.) was used. Reverse transcription was conducted on 1.0 μg total RNA using Thermoscript Reverse Transcriptase (commercially available from Invitrogen, Carlsbad, Calif.) and oligo dT primers as detailed in its product description. Reverse transcription reactions were incubated at 55° C. for 1 h, heat-inactivated at 85° C. for 5 min, and RNase H-treated at 37° C. for 20 min. Human VR1 cDNA sequence was obtained by comparison of the human genomic sequence, prior to annotation, to the published rat sequence. Intron sequences were removed and flanking exonic sequences were joined to generate the hypothetical human cDNA. […] On the day of assay, cells were loaded with Fluo-4 (a calcium-sensitive dye that is commercially available from Molecular Probes, Eugene, Oreg.) and CAP-mediated calcium influx was measured using a Fluorometric Imaging Plate Reader (“FLIPR”) (commercially available from Molecular Devices Corp., Sunnyvale, Calif.) as described below. […]

T1 sequence (Q8NER1 whole entry): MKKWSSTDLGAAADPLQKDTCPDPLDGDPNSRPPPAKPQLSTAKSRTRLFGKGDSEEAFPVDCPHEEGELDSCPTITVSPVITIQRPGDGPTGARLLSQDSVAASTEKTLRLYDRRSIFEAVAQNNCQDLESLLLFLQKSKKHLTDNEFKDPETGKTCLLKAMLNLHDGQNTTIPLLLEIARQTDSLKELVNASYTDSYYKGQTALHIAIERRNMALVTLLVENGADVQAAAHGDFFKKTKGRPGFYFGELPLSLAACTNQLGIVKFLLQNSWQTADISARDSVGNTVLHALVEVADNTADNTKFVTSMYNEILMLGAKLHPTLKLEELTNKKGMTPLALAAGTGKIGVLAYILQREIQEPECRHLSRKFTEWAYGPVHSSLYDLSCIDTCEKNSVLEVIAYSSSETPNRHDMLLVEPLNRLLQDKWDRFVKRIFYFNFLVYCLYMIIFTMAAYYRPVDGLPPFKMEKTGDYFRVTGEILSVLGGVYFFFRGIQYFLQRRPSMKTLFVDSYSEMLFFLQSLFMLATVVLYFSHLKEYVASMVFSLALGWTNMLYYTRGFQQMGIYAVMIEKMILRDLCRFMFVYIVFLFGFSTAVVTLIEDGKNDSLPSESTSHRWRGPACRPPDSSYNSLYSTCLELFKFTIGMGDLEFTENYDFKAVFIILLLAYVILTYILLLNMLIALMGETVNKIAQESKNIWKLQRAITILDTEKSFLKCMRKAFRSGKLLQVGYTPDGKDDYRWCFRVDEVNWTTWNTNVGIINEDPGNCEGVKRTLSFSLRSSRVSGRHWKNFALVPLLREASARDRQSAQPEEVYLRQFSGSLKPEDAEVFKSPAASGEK

For the molecule `C[C@@H]1CN(c2ncccc2Cl)CCN1/C(=N\C#N)NCCC1=CCCCC1` [Compound DEY], the IC50 turned out to be 197 ± 39.8 nM at human VR1 [1] and 59.4 ± 13.1 nM at human VR1 [2] (capsaicin-based assay, human VR1 activated by capsaicin (400 nM) in PonA-induced HEK293-EcR cells, 50 pM to 3 μM, n+3). For the same molecule, the “binding to and modulation of human VR1 (conclusion in words)” value at human VR1 [2] (conclusion from the pH-based assay and the capsaicin-based assay) was “binds to and modulates the activity of human VR1”.

A word on the IC50: it is the concentration at which inhibition is half-maximal. Read a high IC50 as weaker potency in that assay.
